Experimental data from ChEMBL document CHEMBL1143087, “Indirect oxidation of the antitumor agent procarbazine by tyrosinase--possible application in designing anti-melanoma prodrugs” (Bioorg Med Chem Lett, 2008).
Calls of active or inactive are those of the source. The rule behind the calls is not given here.

Target: T1, Tyrosinase (Agaricus bisporus) (UniProt O42713)
T1 sequence (whole entry): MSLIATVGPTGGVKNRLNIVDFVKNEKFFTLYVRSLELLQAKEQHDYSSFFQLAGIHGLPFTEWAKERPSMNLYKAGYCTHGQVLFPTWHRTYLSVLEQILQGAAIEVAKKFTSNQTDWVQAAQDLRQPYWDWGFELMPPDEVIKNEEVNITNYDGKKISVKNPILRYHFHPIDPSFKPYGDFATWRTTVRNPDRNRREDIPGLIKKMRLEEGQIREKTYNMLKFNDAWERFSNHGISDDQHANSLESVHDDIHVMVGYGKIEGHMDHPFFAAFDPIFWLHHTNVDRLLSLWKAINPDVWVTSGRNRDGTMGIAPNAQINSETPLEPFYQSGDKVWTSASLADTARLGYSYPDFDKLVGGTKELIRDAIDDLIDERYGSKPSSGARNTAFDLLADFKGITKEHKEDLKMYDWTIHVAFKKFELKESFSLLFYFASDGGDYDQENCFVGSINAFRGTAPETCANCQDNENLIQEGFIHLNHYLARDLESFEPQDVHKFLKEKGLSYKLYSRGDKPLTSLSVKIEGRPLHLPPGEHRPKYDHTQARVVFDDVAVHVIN
Assay: Increase in mushroom tyrosinase catalysed oxidation of 4-tert-butyl catechol assessed as oxygen consumption after 30 mins

CNNCc1ccc(C(=O)NC(C)C)cc1
Activity: Active
